US8258114B2, “Modulation of glucose-6-phosphatase translocase expression” (Isis Pharmaceuticals, Inc., priority 2004, dated 2012)
Oligonucleotides are written 5' to 3', each unit as a sugar letter and its base; * is a phosphorothioate linkage, no mark a phosphodiester; rarer units and linkages stand in square brackets, end groups in braces. Plain capitals give the bases only. e = 2'-O-(2-methoxyethyl) (MOE); [5mC] = 5-methylcytosine; d = 2'-deoxy (DNA)

Legend:
[1] = tested on: human glucose-6-phosphatase translocase mRNA; assay: Antisense inhibition of human glucose-6-phosphatase translocase mRNA in HepG2 cells (Table 11); assay type: cell-based; set-up: concentration or dose not given beside the values; details: LIPOFECTIN, mRNA by real-time PCR
Method: The human hepatoblastoma cell line HepG2 was obtained from the American Type Culture Collection (Manassas, Va.). HepG2 cells were routinely cultured in Eagle's MEM supplemented with 10% fetal bovine serum, 1 mM non-essential amino acids, and 1 mM sodium pyruvate (Invitrogen Life Technologies, Carlsbad, Calif.). Cells were routinely passaged by trypsinization and dilution when they reached approximately 90% confluence. Multiwell culture plates are prepared for cell culture by coating with a 1:100 dilution of type 1 rat tail collagen (BD Biosciences, Bedford, Mass.) in phosphate-buffered saline. The collagen-containing plates were incubated at 37° C. for approximately 1 hour, after which the collagen was removed and the wells were washed twice with phosphate-buffered saline. Cells were seeded into 96-well plates (Falcon-Primaria #353872, BD Biosciences, Bedford, Mass.) at a density of approximately 8,000 cells/well for use in oligomeric compound transfection experiments.
(§1) When cells reached 65-75% confluency, they were treated with oligonucleotide. Oligonucleotide was mixed with LIPOFECTIN™ Invitrogen Life Technologies, Carlsbad, Calif.) in Opti-MEM™-1 reduced serum medium (Invitrogen Life Technologies, Carlsbad, Calif.) to achieve the desired concentration of oligonucleotide and a LIPOFECTIN™ concentration of 2.5 or 3 μg/mL per 100 nM oligonucleotide. This transfection mixture was incubated at room temperature for approximately 0.5 hours. For cells grown in 96-well plates, wells were washed once with 100 μL OPTI-MEM™-1 and then treated with 130 μL of the transfection mixture. Cells grown in 24-well plates or other standard tissue culture plates are treated similarly, using appropriate volumes of medium and oligonucleotide. Cells are treated and data are obtained in duplicate or triplicate. After approximately 4-7 hours of treatment at 37° C., the medium containing the transfection mixture was replaced with fresh culture medium. Cells were harvested 16-24 hours after oligonucleotide treatment.
(§2) Quantitation of glucose 6-phosphatase translocase mRNA levels was accomplished by real-time quantitative PCR using the ABI PRISM™ 7600, 7700, or 7900 Sequence Detection System (PE-Applied Biosystems, Foster City, Calif.) according to manufacturer's instructions.
(§3) Prior to quantitative PCR analysis, primer-probe sets specific to the target gene being measured were evaluated for their ability to be “multiplexed” with a GAPDH amplification reaction. After isolation the RNA is subjected to sequential reverse transcriptase (RT) reaction and real-time PCR, both of which are performed in the same well. RT and PCR reagents were obtained from Invitrogen Life Technologies (Carlsbad, Calif.). […] The RT reaction was carried out by incubation for 30 minutes at 48° C. Following a 10 minute incubation at 95° C. to activate the PLATINUM® Taq, 40 cycles of a two-step PCR protocol were carried out: 95° C. for 15 seconds (denaturation) followed by 60° C. for 1.5 minutes (annealing/extension).
(§4) Gene target quantities obtained by RT, real-time PCR were normalized using either the expression level of GAPDH, a gene whose expression is constant, or by quantifying total RNA using RiboGreen™ (Molecular Probes, Inc. Eugene, Oreg.). GAPDH expression was quantified by RT, real-time PCR, by being run simultaneously with the target, multiplexing, or separately. Total RNA was quantified using RiboGreen™ RNA quantification reagent (Molecular Probes, Inc. Eugene, Oreg.).
A series of oligomeric compounds was designed to target different regions of human glucose-6-phosphatase translocase, using published sequences cited in Table 1. All compounds in Table 4 are chimeric oligonucleotides (“gapmers”) 20 nucleotides in length, composed of a central “gap” region consisting of 10 2′-deoxynucleotides, which is flanked on both sides (5′ and 3′) by five-nucleotide “wings”. The wings are composed of 2′-O-(2-methoxyethyl) nucleotides, also known as 2′-MOE nucleotides. […]

[2] = tested on: mouse glucose-6-phosphatase translocase mRNA; assay: Antisense inhibition of mouse glucose-6-phosphatase translocase mRNA in primary mouse hepatocytes, 150 nM, LIPOFECTIN (Table 22); assay type: cell-based; details: real-time PCR
Method: Primary mouse hepatocytes were prepared from CD-1 mice purchased from Charles River Labs. Primary mouse hepatocytes were routinely cultured in Hepatocyte Attachment Media supplemented with 10% fetal bovine serum (Invitrogen Life Technologies, Carlsbad, Calif.), 250 nM dexamethasone, and 10 nM bovine insulin (Sigma-Aldrich, St. Louis, Mo.). Cells were seeded into 96-well plates (Falcon-Primaria #353872, BD Biosciences, Bedford, Mass.) at a density of approximately 4,000-6,000 cells/well for use in oligomeric compound transfection experiments.
as §1, §2, §3, §4
A series of oligomeric compounds was designed to target different regions of mouse glucose-6-phosphatase translocase, using published sequences cited in Table 1. All compounds in Table 22 are chimeric oligonucleotides (“gapmers”) 20 nucleotides in length, composed of a central “gap” region consisting of 10 2′-deoxynucleotides, which is flanked on both sides (5′ and 3′) by five-nucleotide “wings”. The wings are composed of 2′-O-(2-methoxyethyl) nucleotides, also known as 2′-MOE nucleotides. The internucleoside (backbone) linkages are phosphorothioate throughout the oligonucleotide. All cytidine residues are 5-methylcytidines. The compounds were analyzed for their effect on gene target mRNA levels by quantitative real-time PCR as described in other examples herein, using the following primer-probe set designed to hybridize to mouse glucose-6-phosphatase translocase: • forward primer: […]

Row | Sequence | % Inhib [1] | % Inhib of mouse glucose-6-phosphatase translocase mRNA levels [2]
1 | ACCACACACAGTGCCCCAGA (eA*e[5mC]*e[5mC]*eA*e[5mC]*dA*d[5mC]*dA*d[5mC]*dA*dG*dT*dG*d[5mC]*d[5mC]*e[5mC]*e[5mC]*eA*eG*eA; antisense) [ISIS 145670] | 42% | 45%
2 | ACCCAGAAGGCTGTGCTCCA (eA*e[5mC]*e[5mC]*e[5mC]*eA*dG*dA*dA*dG*dG*d[5mC]*dT*dG*dT*dG*e[5mC]*eT*e[5mC]*e[5mC]*eA; antisense) [ISIS 145702] | 74% | 45%
3 | AGGAAGAACTGGCCCCAGTC (eA*eG*eG*eA*eA*dG*dA*dA*d[5mC]*dT*dG*dG*d[5mC]*d[5mC]*d[5mC]*e[5mC]*eA*eG*eT*e[5mC]; antisense) [ISIS 145685] | 71% | 43%
4 | CAGGTTCATGCTGGTTGACA (e[5mC]*eA*eG*eG*eT*dT*d[5mC]*dA*dT*dG*d[5mC]*dT*dG*dG*dT*eT*eG*eA*e[5mC]*eA; antisense) [ISIS 145664] | 66% | 50%
5 | CGCCAGCTGTAGCTCTGGGC (e[5mC]*eG*e[5mC]*e[5mC]*eA*dG*d[5mC]*dT*dG*dT*dA*dG*d[5mC]*dT*d[5mC]*eT*eG*eG*eG*e[5mC]; antisense) [ISIS 145667] | 54% | 49%
6 | CTGCGCCAGCTGTAGCTCTG (e[5mC]*eT*eG*e[5mC]*eG*d[5mC]*d[5mC]*dA*dG*d[5mC]*dT*dG*dT*dA*dG*e[5mC]*eT*e[5mC]*eT*eG; antisense) [ISIS 145668] | 47% | 39%
7 | CTGGTCACTGTTACCCGGAA (e[5mC]*eT*eG*eG*eT*d[5mC]*dA*d[5mC]*dT*dG*dT*dT*dA*d[5mC]*d[5mC]*e[5mC]*eG*eG*eA*eA; antisense) [ISIS 359533] | 69% | –
8 | CTGGTTGACAGGATGGCCCA (e[5mC]*eT*eG*eG*eT*dT*dG*dA*d[5mC]*dA*dG*dG*dA*dT*dG*eG*e[5mC]*e[5mC]*e[5mC]*eA; antisense) [ISIS 359511] | 55% | –
9 | GAAACCAAATACAGCTCCCA (eG*eA*eA*eA*e[5mC]*d[5mC]*dA*dA*dA*dT*dA*d[5mC]*dA*dG*d[5mC]*eT*e[5mC]*e[5mC]*e[5mC]*eA; antisense) [ISIS 359539] | 38% | –
10 | GAACTGGCCCCAGTCAGTAC (eG*eA*eA*e[5mC]*eT*dG*dG*d[5mC]*d[5mC]*d[5mC]*d[5mC]*dA*dG*dT*d[5mC]*eA*eG*eT*eA*e[5mC]; antisense) [ISIS 359528] | 45% | –
11 | GAAGGAGACAACCACACACA (eG*eA*eA*eG*eG*dA*dG*dA*d[5mC]*dA*dA*d[5mC]*d[5mC]*dA*d[5mC]*eA*e[5mC]*eA*e[5mC]*eA; antisense) [ISIS 359520] | 42% | –
12 | GAGAAACCAAATACAGCTCC (eG*eA*eG*eA*eA*dA*d[5mC]*d[5mC]*dA*dA*dA*dT*dA*d[5mC]*dA*eG*e[5mC]*eT*e[5mC]*e[5mC]; antisense) [ISIS 359540] | 92% | –
13 | GCCACCCAGAAGGCTGTGCT (eG*e[5mC]*e[5mC]*eA*e[5mC]*d[5mC]*d[5mC]*dA*dG*dA*dA*dG*dG*d[5mC]*dT*eG*eT*eG*e[5mC]*eT; antisense) [ISIS 359545] | 65% | –
14 | GCCCACCAAGTGCCAAACTG (eG*e[5mC]*e[5mC]*e[5mC]*eA*d[5mC]*d[5mC]*dA*dA*dG*dT*dG*d[5mC]*d[5mC]*dA*eA*eA*e[5mC]*eT*eG; antisense) [ISIS 145662] | 52% | 19%
15 | GTCACTGGTCACTGTTACCC (eG*eT*e[5mC]*eA*e[5mC]*dT*dG*dG*dT*d[5mC]*dA*d[5mC]*dT*dG*dT*eT*eA*e[5mC]*e[5mC]*e[5mC]; antisense) [ISIS 359534] | 75% | –
16 | GTGCTCTCCTCCTTCAAGGA (eG*eT*eG*e[5mC]*eT*d[5mC]*dT*d[5mC]*d[5mC]*dT*d[5mC]*d[5mC]*dT*dT*d[5mC]*eA*eA*eG*eG*eA; antisense) [ISIS 359527] | 45% | –
17 | GTGCTGCGCCAGCTGTAGCT (eG*eT*eG*e[5mC]*eT*dG*d[5mC]*dG*d[5mC]*d[5mC]*dA*dG*d[5mC]*dT*dG*eT*eA*eG*e[5mC]*eT; antisense) [ISIS 359517] | 25% | –
18 | TACCAGGATCCAGAGCTTGG (eT*eA*e[5mC]*e[5mC]*eA*dG*dG*dA*dT*d[5mC]*d[5mC]*dA*dG*dA*dG*e[5mC]*eT*eT*eG*eG; antisense) [ISIS 359535] | 58% | –
19 | TCACTGTTACCCGGAAGAGG (eT*e[5mC]*eA*e[5mC]*eT*dG*dT*dT*dA*d[5mC]*d[5mC]*d[5mC]*dG*dG*dA*eA*eG*eA*eG*eG; antisense) [ISIS 359532] | 48% | –
20 | TCCAGCCAGGTTCATGCTGG (eT*e[5mC]*e[5mC]*eA*eG*d[5mC]*d[5mC]*dA*dG*dG*dT*dT*d[5mC]*dA*dT*eG*e[5mC]*eT*eG*eG; antisense) [ISIS 359514] | 37% | –
21 | TCCCAATACCAGGATCCAGA (eT*e[5mC]*e[5mC]*e[5mC]*eA*dA*dT*dA*d[5mC]*d[5mC]*dA*dG*dG*dA*dT*e[5mC]*e[5mC]*eA*eG*eA; antisense) [ISIS 359536] | 55% | –
22 | TCCTTCAAGGAGCCCTTCTT (eT*e[5mC]*e[5mC]*eT*eT*d[5mC]*dA*dA*dG*dG*dA*dG*d[5mC]*d[5mC]*d[5mC]*eT*eT*e[5mC]*eT*eT; antisense) [ISIS 359525] | 56% | –
23 | TCCTTTCTCCTGGATAAGGA (eT*e[5mC]*e[5mC]*eT*eT*dT*d[5mC]*dT*d[5mC]*d[5mC]*dT*dG*dG*dA*dT*eA*eA*eG*eG*eA; antisense) [ISIS 359530] | 59% | –
24 | TCTCCTCCTTCAAGGAGCCC (eT*e[5mC]*eT*e[5mC]*e[5mC]*dT*d[5mC]*d[5mC]*dT*dT*d[5mC]*dA*dA*dG*dG*eA*eG*e[5mC]*e[5mC]*e[5mC]; antisense) [ISIS 359526] | 54% | –
25 | TCTCCTGGATAAGGAAGAAC (eT*e[5mC]*eT*e[5mC]*e[5mC]*dT*dG*dG*dA*dT*dA*dA*dG*dG*dA*eA*eG*eA*eA*e[5mC]; antisense) [ISIS 359529] | 15% | –
26 | TGTAGTGCTTGGCAATGGTG (eT*eG*eT*eA*eG*dT*dG*d[5mC]*dT*dT*dG*dG*d[5mC]*dA*dA*eT*eG*eG*eT*eG; antisense) [ISIS 359544] | 7% | –
27 | TTACCCGGAAGAGGTACATG (eT*eT*eA*e[5mC]*e[5mC]*d[5mC]*dG*dG*dA*dA*dG*dA*dG*dG*dT*eA*e[5mC]*eA*eT*eG; antisense) [ISIS 359531] | 62% | –
28 | TTCAGCCACCCAGAAGGCTG (eT*eT*e[5mC]*eA*eG*d[5mC]*d[5mC]*dA*d[5mC]*d[5mC]*d[5mC]*dA*dG*dA*dA*eG*eG*e[5mC]*eT*eG; antisense) [ISIS 359546] | 39% | –
